The record followed here is patent US5200409A, “Composition and use of substituted 1,3-dithiolo-and 1,4-dithiinoquinoxalines as an antimicrobial” (The Dow Chemical Company, priority 1992, dated 1993).

Converted amounts (≈) assume the structure as drawn. Read-outs that look alike come from different tables or passages of the source. Bounds are passed on as bounds.

For assay [1], the system named is Bacillus subtilis (Bs). Kind of assay: Minimum inhibitory concentration (MIC) in nutrient agar. The class given is cell-based, Bacillus subtilis ATCC 8473. The essentials: (§1)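 MIC is taken as the lowest agar concentration preventing bacterial growth after 48 h at 30° C. Compound, added from a 1% acetone/water stock, ranges 1.0–500 ppm in nutrient agar at pH 6.8 or 8.2, with compound-free controls.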

The subject of assay [2] is Enterobacter aerogenes (Ea). The description is as above. Type of assay: cell-based, Enterobacter aerogenes ATCC 13048. The conditions noted are these: Klebsiella aerogenes. The essentials: as §1
The test system of assay [3] is Klebsiella pneumoniae (Kp). Described as above. The class given is cell-based, Klebsiella pneumoniae ATCC 8308. In outline:
as §1

Assay [4] deals with Proteus vulgaris (Pv). The assay is described as above. The class given is cell-based, Proteus vulgaris ATCC 881. In outline:
as §1

Assay [5] has as its system Pseudomonas aeruginosa (Pa). Described as above. Type of assay: cell-based, Pseudomonas aeruginosa ATCC 10145. The conditions noted are these: 48 hours. The essentials: as §1
Assay [6] concerns Staphylococcus aureus (Sa). The description is as above. The class given is cell-based, Staphylococcus aureus ATCC 6538. The essentials:
as §1

The test system of assay [7] is Aureobasidium pullulan (Ap). The assay can be described thus: Minimum inhibitory concentration (MIC) in malt yeast agar. Type of assay: cell-based, Aureobasidium pullulan ATCC 16622. The conditions noted are these: read-out: Minimum Inhibitory Concentration, Ap. In outline: (§2)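 These fungal MICs come from an agar dilution series in malt yeast agar spanning 500 to 1.0 ppm. The plates were incubated at 30° C and read after 72 hours.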

Assay [8] relates to Aspergillus niger (An). The description is as above. The note with it: read-out: Minimum Inhibitory Concentration, An. The class given is cell-based, Aspergillus niger ATCC 16404. The essentials: as §2
[9] abbreviates: pH 6.8, nutrient agar, 30° C., 48 hours, read-out: Minimum Inhibitory Concentration, Bs.
Setting [10] is: 48 h, pH 8.2, read-out: Minimum Inhibitory Concentration, Ea.
Where [11] appears, read: 48 h, pH 8.2, read-out: Minimum Inhibitory Concentration, Kp.
The mark [12] stands for this setting: pH 6.8, nutrient agar, 30° C., 48 hours, read-out: Minimum Inhibitory Concentration, Kp.
The mark [13] stands for this setting: 48 h, pH 8.2, read-out: Minimum Inhibitory Concentration, Pv.
[14] abbreviates: 48 h, pH 6.8, read-out: Minimum Inhibitory Concentration, Sa.
Where [15] appears, read: pH 8.2, nutrient agar, 30° C., 48 hours, read-out: Minimum Inhibitory Concentration, Sa.
The mark [16] stands for this setting: 48 h, pH 6.8, read-out: Minimum Inhibitory Concentration, Bs.
Where [17] appears, read: 48 h, pH 8.2, read-out: Minimum Inhibitory Concentration, Bs.
The mark [18] stands for this setting: 48 h, pH 6.8, read-out: Minimum Inhibitory Concentration, Ea.
Setting [19] is: 48 h, pH 6.8, read-out: Minimum Inhibitory Concentration, Kp.
[20] abbreviates: 48 h, pH 6.8, read-out: Minimum Inhibitory Concentration, Pv.
The mark [21] stands for this setting: 48 h, pH 8.2, read-out: Minimum Inhibitory Concentration, Sa.
Where [22] appears, read: malt yeast agar, 30° C., 72 hours for fungi.
[23] abbreviates: malt yeast agar, 30° C., 48 hours for yeast and 72 hours for fungi.
Setting [24] is: pH 6.8, nutrient agar, 30° C., 48 hours, read-out: Minimum Inhibitory Concentration, Sa.

For `N#CC1=C(C#N)Sc2nc3cc([N+](=O)[O-])ccc3nc2S1` [A, 7-nitro-1,4-dithiino-(2,3-b)-quinoxaline-2,3-dicarbonitrile], the MIC in assay [1] (setting [9]) was less than 10 µg/mL; in assay [1] (pH 8.2, nutrient agar, 30° C., 48 hours, read-out: Minimum Inhibitory Concentration, Bs) it was 100 µg/mL (≈ 319 µM); in assay [2] (setting [10]), more than 500 µg/mL; in assay [2] (pH 6.8, nutrient agar, 30° C., 48 hours, read-out: Minimum Inhibitory Concentration, Ea), 100 µg/mL (≈ 319 µM); in assay [3] (setting [11]), 500 µg/mL (≈ 1600 µM); in assay [3] (setting [12]), 25 µg/mL (≈ 79.8 µM). Also, the MIC in assay [4] (setting [13]) is more than 500 µg/mL; in assay [4] (pH 6.8, nutrient agar, 30° C., 48 hours, read-out: Minimum Inhibitory Concentration, Pv), 50 µg/mL (≈ 160 µM); in assay [5] (pH 6.8, 30° C.) it was 100 µg/mL (≈ 319 µM); in assay [5] (pH 8.2, 30° C.), more than 500 µg/mL; in assay [6] (setting [14]), less than 10 µg/mL; in assay [6] (setting [15]), 100 µg/mL (≈ 319 µM). The MIC in assay [7] stood at 2.5 µg/mL (≈ 7.98 µM).

Turning to `N#CC1=C(C#N)Sc2nc3cc([N+](=O)[O-])c([N+](=O)[O-])cc3nc2S1` [B, 7,8-Dinitro-1,4-dithiino-(2,3-b)quinoxaline-2,3-dicarbonitrile], the MIC is 500 µg/mL (≈ 1400 µM) in assay [1] (setting [16]); 25 µg/mL (≈ 69.8 µM) in assay [1] (setting [17]); more than 500 µg/mL in assay [2] (setting [18]); more than 500 µg/mL in assay [2] (setting [10]); 250 µg/mL (≈ 698 µM) in assay [3] (setting [19]); more than 500 µg/mL in assay [3] (setting [11]). Besides, the MIC in assay [4] (setting [20]) was more than 500 µg/mL; in assay [4] (setting [13]), more than 500 µg/mL; in assay [5] (pH 6.8, 30° C.), more than 500 µg/mL; in assay [5] (pH 8.2, 30° C.), more than 500 µg/mL; in assay [6] (setting [14]), less than 10 µg/mL; in assay [6] (setting [21]), less than 10 µg/mL. The figures for the MIC in assay [8] (72 h) and in assay [7] were 25 µg/mL (≈ 69.8 µM) and 5 µg/mL (≈ 14 µM), respectively.

For `N#CC1=C(C#N)Sc2nc3cc(Cl)ccc3nc2S1` [C, 7-chloro-1,4-dithiino-(2,3-b)-quinoxaline-2,3-dicarbonitrile], the MIC in assay [1] (setting [17]) is 25 µg/mL (≈ 82.6 µM); in assay [1] (setting [9]), 25 µg/mL (≈ 82.6 µM); in assay [2] (setting [18]) it was more than 500 µg/mL; in assay [2] (setting [10]) it was more than 500 µg/mL; in assay [3] (setting [11]) it was more than 500 µg/mL; in assay [3] (setting [12]), more than 500 µg/mL. In addition, the MIC in assay [4] (setting [20]) is more than 500 µg/mL; in assay [4] (setting [13]), more than 500 µg/mL; in assay [5] (pH 6.8, 30° C.), more than 500 µg/mL; in assay [5] (pH 8.2, 30° C.) it was more than 500 µg/mL; in assay [6] (setting [14]) it was 50 µg/mL (≈ 165 µM); in assay [6] (setting [15]), 50 µg/mL (≈ 165 µM). Also, the values for the MIC in assay [8] (setting [22]) and in assay [7] (setting [23]) were 25 µg/mL (≈ 82.6 µM) and less than 10 µg/mL, respectively.

Take `Cc1ccc2nc3c(nc2c1)SC(C#N)=C(C#N)S3` [D, 7-Methyl-1,4-dithiino-(2,3-b)quinoxaline-2,3-dicarbonitrile]: the MIC in assay [1] (setting [17]) was 250 µg/mL (≈ 885 µM); in assay [1] (setting [9]), 25 µg/mL (≈ 88.5 µM); in assay [2] (setting [18]), more than 500 µg/mL; in assay [2] (setting [10]), more than 500 µg/mL; in assay [3] (setting [11]) it was more than 500 µg/mL; in assay [3] (setting [12]), more than 500 µg/mL. For the same compound, the MIC was more than 500 µg/mL in assay [4] (setting [20]); more than 500 µg/mL in assay [4] (setting [13]); more than 500 µg/mL in assay [5] (pH 6.8, 30° C.); more than 500 µg/mL in assay [5] (pH 8.2, 30° C.); 500 µg/mL (≈ 1770 µM) in assay [6] (setting [21]); 100 µg/mL (≈ 354 µM) in assay [6] (setting [24]). The MIC worked out at 50 µg/mL (≈ 177 µM) in assay [8] (72 h) and 25 µg/mL (≈ 88.5 µM) in assay [7] (setting [23]).

In the case of `N#CC1=C(C#N)Sc2nc3ccccc3nc2S1` [E, 1,4-dithiino-(2,3-b)-quinoxaline-2,3-dicarbonitrile], the MIC is more than 500 µg/mL in assay [1] (setting [17]); 50 µg/mL (≈ 186 µM) in assay [1] (setting [9]); more than 500 µg/mL in assay [2] (setting [18]); more than 500 µg/mL in assay [2] (setting [10]); more than 500 µg/mL in assay [3] (setting [11]); 500 µg/mL (≈ 1860 µM) in assay [3] (setting [12]). The MIC in assay [4] (setting [20]) was more than 500 µg/mL; in assay [4] (setting [13]), more than 500 µg/mL; in assay [5] (pH 6.8, 30° C.) it was more than 500 µg/mL; in assay [5] (pH 8.2, 30° C.), more than 500 µg/mL; in assay [6] (setting [21]), less than 10 µg/mL; in assay [6] (setting [24]) it was 25 µg/mL (≈ 93.2 µM). In addition, the MIC in assay [8] (setting [22]) and in assay [7] (setting [23]) was less than 10 µg/mL in each case.

In the case of `N#CC(C#N)=C1Sc2nc3ccc([N+](=O)[O-])cc3nc2S1` [L, 6-nitro-1,3-dithiolo-(4,5-b)-quinoxaline-2-ylidene-propanedinitrile], the MIC in assay [1] (setting [16]) was 100 µg/mL (≈ 319 µM); in assay [1] (setting [17]) it was more than 500 µg/mL; in assay [2] (setting [18]), more than 500 µg/mL; in assay [2] (setting [10]) it was more than 500 µg/mL; in assay [3] (setting [11]), more than 500 µg/mL; in assay [3] (setting [12]) it was more than 500 µg/mL. For the same compound, the MIC in assay [4] (setting [20]) is more than 500 µg/mL; in assay [4] (setting [13]), more than 500 µg/mL; in assay [5] (pH 6.8, 30° C.), more than 500 µg/mL; in assay [5] (pH 8.2, 30° C.) it was more than 500 µg/mL; in assay [6] (setting [21]), more than 500 µg/mL; in assay [6] (setting [24]), 100 µg/mL (≈ 319 µM). For the same compound, the MIC in assay [8] (72 h) amounted to 2.5 µg/mL (≈ 7.98 µM); in assay [7], 5 µg/mL (≈ 16 µM).

As for `N#CC(C#N)=C1Sc2nc3cc([N+](=O)[O-])c([N+](=O)[O-])cc3nc2S1` [M, 6,7-dinitro-1,3-dithiolo-(4,5-b)-quinoxaline-2-ylidene-propanedinitrile], the MIC is 100 µg/mL (≈ 279 µM) in assay [1] (setting [16]); 250 µg/mL (≈ 698 µM) in assay [1] (setting [17]); more than 500 µg/mL in assay [2] (setting [18]); more than 500 µg/mL in assay [2] (setting [10]); 50 µg/mL (≈ 140 µM) in assay [3] (setting [19]); more than 500 µg/mL in assay [3] (setting [11]). The MIC is more than 500 µg/mL in assay [4] (setting [20]); more than 500 µg/mL in assay [4] (setting [13]); 500 µg/mL (≈ 1400 µM) in assay [5] (pH 6.8, 30° C.); more than 500 µg/mL in assay [5] (pH 8.2, 30° C.); less than 10 µg/mL in assay [6] (setting [14]); 100 µg/mL (≈ 279 µM) in assay [6] (setting [21]). The MIC in assay [8] (72 h) and in assay [7] was 2.5 µg/mL (≈ 6.98 µM) throughout.

Consider `N#CC(C#N)=C1Sc2nc3ccc(Cl)cc3nc2S1` [O, 6-chloro-1,3-dithiolo-(4,5-b)-quinoxaline-2-ylidene-propanedinitrile], for which the MIC in assay [1] (setting [16]), in assay [1] (setting [17]), in assay [2] (setting [18]), in assay [2] (setting [10]), in assay [3] (setting [11]) and in assay [3] (setting [12]) was more than 500 µg/mL in each case. Moreover, the MIC was more than 500 µg/mL in assay [4] (setting [20]); more than 500 µg/mL in assay [4] (setting [13]); more than 500 µg/mL in assay [5] (pH 6.8, 30° C.); more than 500 µg/mL in assay [5] (pH 8.2, 30° C.); more than 500 µg/mL in assay [6] (setting [21]); more than 500 µg/mL in assay [6] (setting [24]). In addition, the MIC in assay [8] (setting [22]) and in assay [7] (setting [23]) was 500 µg/mL (≈ 1650 µM) in each case.
